Converted amounts (≈) assume the structure as drawn.
Columns and labels:
S. aureus Sa22 [1] = assay: BMD susceptibility test; type: cell-based, Staphylococcus aureus; details: unit assumed
S. aureus Sa23 [2] = assay: FaAST (FDAA metabolic labeling method); type: cell-based, Staphylococcus aureus; details: unit assumed
Method: (§1) Take the colony to be tested that has been cultured overnight on the plate and fully mix it in normal saline to make a uniform bacterial solution. Dilute it into Cation-Adjusted Mueller Hinton Broth (CAMHB) culture medium to make a bacterial solution with OD600=0.05. • 2. Add 45 μl antibiotic solutions of different concentrations to 96-well plates (see Table 1 for antibiotic concentration gradient settings). • 3. Add 50 μl of the bacterial solution prepared in step 1 to the 96-well plate and mix well. • 4. Add 5 μl of 10 mM Cy5-DAA probe (final concentration 0.15 mM, see FIG. 1 for its structure) into each well, mix well, and cultivate in dark for 2 hours. • 5. Add 200 μl After PBS solution is diluted, the fluorescence intensity of each sample is detected by flow cytometry. The flow detection results are shown in FIG. 4-5, showing the curve of the change of antibiotic concentration gradient and fluorescence intensity. The MIC (minimum inhibitory concentration) can be obtained by referring to this curve.
(§2) Bacteria with antibiotic resistance are shown in bold in the following table.

S. aureus Sa22 [3] = assay: FaAST (FDAA metabolic labeling method); type: cell-based, Staphylococcus aureus; details: unit assumed
Method: as §1, §2

S. aureus ATCC29213 [4] = assay: FaAST (FDAA metabolic labeling method); type: cell-based, Staphylococcus aureus; details: unit assumed
Method: as §1, §2

S. aureus Sa23 [5] = assay: BMD susceptibility test; type: cell-based, Staphylococcus aureus; details: unit assumed
E. faecium Ef28 [6] = assay: FaAST (FDAA metabolic labeling method); type: cell-based, Enterococcus faecium; details: unit assumed
Method: as §1, with “The flow detection results are shown in FIG. 4-5, showing the curve of the change of antibiotic concentration gradient and fluorescence intensity.” left out

S. aureus ATCC29213 [7] = assay: BMD susceptibility test; type: cell-based, Staphylococcus aureus; details: unit assumed
E. faecium Ef26 [8] = assay: BMD susceptibility test; type: cell-based, Enterococcus faecium; details: unit assumed
E. faecium Ef26 [9] = assay: FaAST (FDAA metabolic labeling method); type: cell-based, Enterococcus faecium; details: unit assumed
Method: as §1, §2

E. faecium Ef28 [10] = assay: BMD susceptibility test; type: cell-based, Enterococcus faecium; details: unit assumed
E. faecalis ATCC29212 [11] = assay: BMD susceptibility test; type: cell-based, Enterococcus faecalis; details: unit assumed
E. faecalis ATCC29212 [12] = details: cited from earlier work
E. faecalis ATCC29212 [13] = assay: FaAST (FDAA metabolic labeling method); type: cell-based, Enterococcus faecalis; details: unit assumed
Method: as §1, §2

S. aureus ATCC29213 [14] = details: cited from earlier work
S. aureus ST59 [15] = assay: FDAA metabolic labeling susceptibility test (Cy5-DAA probe, flow cytometry); type: cell-based; details: Staphylococcus aureus, ST59, 2 h, read-out: MIC, FDAA
Method: as §1

S. aureus ST398 [16] = assay: as above; type: cell-based; details: Staphylococcus aureus, ST398, 2 h, read-out: MIC, FDAA
Method: as §1

S. aureus ST5 [17] = assay: as above; type: cell-based; details: Staphylococcus aureus, ST5, 2 h, read-out: MIC, FDAA
Method: as §1

S. aureus ST398 [18] = assay: Vitek 2 drug sensitivity test; type: cell-based, Staphylococcus aureus; as to Sensibility: key: S: Drug sensitive; R: Drug resistance
S. aureus ST59 [19] = assay: Vitek 2 drug sensitivity test; type: cell-based, Staphylococcus aureus; as to Sensibility: key: S: Drug sensitive; R: Drug resistance
S. aureus ST5 [20] = assay: Vitek 2 drug sensitivity test; type: cell-based, Staphylococcus aureus; as to Sensibility: key: S: Drug sensitive; R: Drug resistance

Which BMD (MIC) (S. aureus Sa22 [1]) does the source give for teicoplanin here?
The BMD (MIC) was 0.5 µg/mL.

What about the FaAST (MIC) (S. aureus Sa23 [2]) of the same compound?
The FaAST (MIC) was 1 µg/mL.

And the FaAST (MIC) (S. aureus Sa22 [3])?
The FaAST (MIC) was 1 µg/mL.

What about the FaAST (MIC) (S. aureus ATCC29213 [4]) of the same compound?
Its FaAST (MIC) is 0.25 µg/mL.

What about the BMD (MIC) (S. aureus Sa23 [5]) of the same compound?
The BMD (MIC) was 0.5 µg/mL.

What about the FaAST (MIC) (E. faecium Ef28 [6]) of the same compound?
The FaAST (MIC) was 32 µg/mL.

What about the BMD (MIC) (S. aureus ATCC29213 [7]) of the same compound?
The BMD (MIC) was at most 0.25 µg/mL.

What about the BMD (MIC) (E. faecium Ef26 [8]) of the same compound?
The BMD (MIC) was 0.5 µg/mL.

What about the FaAST (MIC) (E. faecium Ef26 [9]) of the same compound?
Its FaAST (MIC) is 0.25 µg/mL.

What about the BMD (MIC) (E. faecium Ef28 [10]) of the same compound?
Its BMD (MIC) is 16 µg/mL.

What about the BMD (MIC) (E. faecalis ATCC29212 [11]) of the same compound?
The BMD (MIC) was at most 0.25 µg/mL.

And the “CLSI QC range” value (E. faecalis ATCC29212 [12])?
Its value is 0.25-1.

And the FaAST (MIC) (E. faecalis ATCC29212 [13])?
Its FaAST (MIC) is 0.5 µg/mL.

And the “CLSI QC range” value (S. aureus ATCC29213 [14])?
The value was 0.25-1^.

For `CN[C@H](CC(C)C)C(=O)N[C@H]1C(=O)N[C@@H](CC(N)=O)C(=O)N[C@H]2C(=O)N[C@H]3C(=O)N[C@H](C(=O)N[C@H](C(=O)O)c4cc(O)cc(O)c4-c4cc3ccc4O)[C@H](O)c3ccc(c(Cl)c3)Oc3cc2cc(c3O[C@@H]2O[C@H](CO)[C@@H](O)[C@H](O)[C@H]2O[C@H]2C[C@](C)(N)[C@H](O)[C@H](C)O2)Oc2ccc(cc2Cl)[C@H]1O` [Vancomycin, vancomycin], which BMD (MIC) (S. aureus Sa22 [1]) is on record?
Its BMD (MIC) is 1 µg/mL.

What about the FaAST (MIC) (S. aureus Sa23 [2]) of the same compound?
The FaAST (MIC) was 2 µg/mL.

And the FaAST (MIC) (S. aureus Sa22 [3])?
The FaAST (MIC) was 2 µg/mL.

And the FaAST (MIC) (S. aureus ATCC29213 [4])?
The FaAST (MIC) was 1 µg/mL.

What about the BMD (MIC) (S. aureus Sa23 [5]) of the same compound?
The BMD (MIC) was 1 µg/mL.

And the MIC (S. aureus ST59 [15])?
Its MIC is 2 µg/mL (≈ 1.38 µM).

And the MIC (S. aureus ST398 [16])?
Its MIC is 2 µg/mL (≈ 1.38 µM).

What about the MIC (S. aureus ST5 [17]) of the same compound?
Its MIC is 4 µg/mL (≈ 2.76 µM).

And the Sensibility (S. aureus ST398 [18])?
The Sensibility was “S”.

What about the MIC (S. aureus ST398 [18]; Staphylococcus aureus) of the same compound?
Its MIC is at most 0.5 µg/mL.

What about the Sensibility (S. aureus ST59 [19]) of the same compound?
The Sensibility was “S”.

And the MIC (S. aureus ST59 [19]; Staphylococcus aureus)?
Its MIC is 1 µg/mL (≈ 0.69 µM).

And the Sensibility (S. aureus ST5 [20])?
Its Sensibility is “S”.

What about the MIC (S. aureus ST5 [20]; Staphylococcus aureus) of the same compound?
The MIC was 1 µg/mL (≈ 0.69 µM).

And the FaAST (MIC) (E. faecium Ef28 [6])?
Its FaAST (MIC) is 32 µg/mL.

What about the BMD (MIC) (S. aureus ATCC29213 [7]) of the same compound?
The BMD (MIC) was 1 µg/mL.

And the BMD (MIC) (E. faecium Ef26 [8])?
The BMD (MIC) was 0.5 µg/mL.

What about the FaAST (MIC) (E. faecium Ef26 [9]) of the same compound?
Its FaAST (MIC) is 0.25 µg/mL.

What about the BMD (MIC) (E. faecalis ATCC29212 [11]) of the same compound?
The BMD (MIC) was 2 µg/mL.

And the “CLSI QC range” value (E. faecalis ATCC29212 [12])?
The value was 1-4.

And the FaAST (MIC) (E. faecalis ATCC29212 [13])?
The FaAST (MIC) was 2 µg/mL.

What about the “CLSI QC range” value (S. aureus ATCC29213 [14]) of the same compound?
The value was 0.5-2.

Reference: patent US20240240224A1, “FLUORESCENT D-TYPE AMINO ACID METABOLISM MARKER-BASED METHOD FOR DETECTING ANTIBACTERIAL DRUG SENSITIVITY TEST” (priority 2020, published 2024)
